{
  "source": "paper PMC5218480",
  "about": "(PLoS ONE, 2017)",
  "test_system": "MV-4-11 cells",
  "experiment": "Gene expression microarray analysis (Affymetrix PrimeView) and GSEA",
  "assay_type": "cell-based, human",
  "parameters": "RFU PODN (11730768_x_at) / Fold change /veh PODN (11730768_x_at) / RFU LINC00158 (11744669_a_at) / Fold change /veh LINC00158 (11744669_a_at) / RFU DUSP10 (11751237_a_at) / Fold change /veh DUSP10 (11751237_a_at) / RFU ID3 (11757404_x_at) / Fold change /veh ID3 (11757404_x_at) / RFU PLEKHG5 (11737974_s_at) / Fold change /veh PLEKHG5 (11737974_s_at) / RFU LRRC4B (11730491_at) / Fold change /veh LRRC4B (11730491_at) / RFU GIMAP4 (11747438_a_at) / Fold change /veh GIMAP4 (11747438_a_at) / RFU KRT8 (11758183_x_at) / Fold change /veh KRT8 (11758183_x_at) / RFU CNN1 (11734310_a_at) / Fold change /veh CNN1 (11734310_a_at) / RFU VPS37D (11726825_at) / Fold change /veh VPS37D (11726825_at) / RFU C10orf10 (11716522_x_at) / Fold change /veh C10orf10 (11716522_x_at) / RFU KIR2DL2 /// KIR2DL4 /// KIR2DL5A /// KIR2DL5B /// KIR2DS1 /// KIR2DS2 /// KIR2DS3 /// KIR2DS4 /// KIR3DL3 /// KIR3DL3 /// KIR3DS1 (11738374_at) / Fold change /veh KIR2DL2 /// KIR2DL4 /// KIR2DL5A /// KIR2DL5B /// KIR2DS1 /// KIR2DS2 /// KIR2DS3 /// KIR2DS4 /// KIR3DL3 /// KIR3DL3 /// KIR3DS1 (11738374_at) / RFU C1QL1 (11718748_at) / Fold change /veh C1QL1 (11718748_at) / RFU TMPRSS4 (11747572_a_at) / Fold change /veh TMPRSS4 (11747572_a_at) / RFU HAMP (11756126_x_at) / Fold change /veh HAMP (11756126_x_at) / RFU RNFT2 (11725882_a_at) / Fold change /veh RNFT2 (11725882_a_at) / RFU NR4A2 (11747474_a_at) / Fold change /veh NR4A2 (11747474_a_at) / RFU ABCC12 (11746883_a_at) / Fold change /veh ABCC12 (11746883_a_at) / RFU TMEM136 (11760407_x_at) / Fold change /veh TMEM136 (11760407_x_at) / RFU CLDN22 /// WWC2 (11732394_at) / Fold change /veh CLDN22 /// WWC2 (11732394_at) / RFU HLA-DPB1 (11760878_x_at) / Fold change /veh HLA-DPB1 (11760878_x_at) / RFU SPINT1 (11716480_a_at) / Fold change /veh SPINT1 (11716480_a_at) / RFU GAP43 (11754022_s_at) / Fold change /veh GAP43 (11754022_s_at) / RFU A4GNT (11735810_at) / Fold change /veh A4GNT (11735810_at) / RFU PRB3 (11715151_x_at) / Fold change /veh PRB3 (11715151_x_at) / RFU TUBB4B (11761932_at) / Fold change /veh TUBB4B (11761932_at) / RFU CAPN14 (11732068_a_at) / Fold change /veh CAPN14 (11732068_a_at) / RFU TMCC2 (11721928_a_at) / Fold change /veh TMCC2 (11721928_a_at) / RFU IRGQ (11745062_a_at) / Fold change /veh IRGQ (11745062_a_at) / RFU FAM174B (11720279_a_at) / Fold change /veh FAM174B (11720279_a_at) / RFU TMPRSS4 (11748680_a_at) / Fold change /veh TMPRSS4 (11748680_a_at) / RFU FAM212B (11763350_a_at) / Fold change /veh FAM212B (11763350_a_at) / RFU PLEKHG5 (11743358_a_at) / Fold change /veh PLEKHG5 (11743358_a_at) / RFU ZSCAN30 (11745921_a_at) / Fold change /veh ZSCAN30 (11745921_a_at) / RFU CMKLR1 (11741424_a_at) / Fold change /veh CMKLR1 (11741424_a_at) / RFU LOC101060620 /// MAPK8IP1 (11723275_at) / Fold change /veh LOC101060620 /// MAPK8IP1 (11723275_at) / RFU SPTSSB (11747773_x_at) / Fold change /veh SPTSSB (11747773_x_at) / RFU PRSS12 (11739890_at) / Fold change /veh PRSS12 (11739890_at) / RFU BIN1 (11741810_x_at) / Fold change /veh BIN1 (11741810_x_at) / RFU WNT11 (11732464_a_at) / Fold change /veh WNT11 (11732464_a_at) / RFU C10orf10 (11716521_a_at) / Fold change /veh C10orf10 (11716521_a_at) / RFU C5orf56 (11738089_at) / Fold change /veh C5orf56 (11738089_at) / RFU CYB561 (11721691_x_at) / Fold change /veh CYB561 (11721691_x_at) / RFU ANKRD19P (11752326_a_at) / Fold change /veh ANKRD19P (11752326_a_at) / RFU OR2T12 /// OR2T33 /// OR2T8 (11738714_s_at) / Fold change /veh OR2T12 /// OR2T33 /// OR2T8 (11738714_s_at) / RFU VCAN (11748164_a_at) / Fold change /veh VCAN (11748164_a_at) / RFU JSRP1 (11732532_at) / Fold change /veh JSRP1 (11732532_at) / RFU KRTAP10-11 (11738290_x_at) / Fold change /veh KRTAP10-11 (11738290_x_at) / RFU MYO3A (11730013_a_at) / Fold change /veh MYO3A (11730013_a_at) / RFU EBF3 (11725865_a_at) / Fold change /veh EBF3 (11725865_a_at) / RFU CAMK2N1 (11719241_x_at) / Fold change /veh CAMK2N1 (11719241_x_at) / RFU C5orf56 (11738088_a_at) / Fold change /veh C5orf56 (11738088_a_at) / RFU OLFML3 (11715873_a_at) / Fold change /veh OLFML3 (11715873_a_at) / RFU LOC100653217 /// NTM (11731650_a_at) / Fold change /veh LOC100653217 /// NTM (11731650_a_at) / RFU MAPK11 (11762145_a_at) / Fold change /veh MAPK11 (11762145_a_at) / RFU FIZ1 (11724087_x_at) / Fold change /veh FIZ1 (11724087_x_at) / RFU OASL (11726364_x_at) / Fold change /veh OASL (11726364_x_at) / RFU SOX15 (11748057_x_at) / Fold change /veh SOX15 (11748057_x_at) / RFU CD79A (11719716_a_at) / Fold change /veh CD79A (11719716_a_at) / RFU HIST1H1D (11736915_at) / Fold change /veh HIST1H1D (11736915_at) / RFU CASKIN2 (11723855_a_at) / Fold change /veh CASKIN2 (11723855_a_at) / RFU LOC730098 (11760151_x_at) / Fold change /veh LOC730098 (11760151_x_at) / RFU OR4N2 (11742367_at) / Fold change /veh OR4N2 (11742367_at) / RFU PRRT2 (11749266_a_at) / Fold change /veh PRRT2 (11749266_a_at) / RFU SNX32 (11753110_a_at) / Fold change /veh SNX32 (11753110_a_at) / RFU CDHR5 (11726645_a_at) / Fold change /veh CDHR5 (11726645_a_at) / RFU RCAN1 (11760418_a_at) / Fold change /veh RCAN1 (11760418_a_at) / RFU FAM167A (11723789_a_at) / Fold change /veh FAM167A (11723789_a_at) / RFU FAM26E (11764081_at) / Fold change /veh FAM26E (11764081_at) / RFU ISYNA1 (11749810_s_at) / Fold change /veh ISYNA1 (11749810_s_at) / RFU ACY1 (11761880_at) / Fold change /veh ACY1 (11761880_at) / RFU 11764098_at / Fold change /veh 11764098_at / RFU SAMD14 (11745864_x_at) / Fold change /veh SAMD14 (11745864_x_at) / RFU NPB (11741838_a_at) / Fold change /veh NPB (11741838_a_at) / RFU TMPRSS6 (11731388_a_at) / Fold change /veh TMPRSS6 (11731388_a_at) / RFU KRTAP10-2 (11738614_at) / Fold change /veh KRTAP10-2 (11738614_at) / RFU ARHGAP8 /// PRR5-ARHGAP8 (11727945_x_at) / Fold change /veh ARHGAP8 /// PRR5-ARHGAP8 (11727945_x_at) / RFU KRTAP5-7 /// NADSYN1 (11734609_at) / Fold change /veh KRTAP5-7 /// NADSYN1 (11734609_at) / RFU RASL12 (11751679_a_at) / Fold change /veh RASL12 (11751679_a_at) / RFU CDKN2B (11736163_a_at) / Fold change /veh CDKN2B (11736163_a_at) / RFU PRF1 (11729649_at) / Fold change /veh PRF1 (11729649_at) / RFU, ZNF638 /// ZNF638-IT1 / Fold change vs veh, ZNF638 /// ZNF638-IT1 / RFU, PANK3 / Fold change vs veh, PANK3 / RFU, SH3YL1 / Fold change vs veh, SH3YL1 / RFU, ZEB2 / Fold change vs veh, ZEB2 / RFU, NRIP1 / Fold change vs veh, NRIP1 / RFU, PTTG1IP / Fold change vs veh, PTTG1IP / RFU, CAPN2 / Fold change vs veh, CAPN2 / RFU, MED14 / Fold change vs veh, MED14 / RFU, SNORA58 / Fold change vs veh, SNORA58 / RFU, C1orf63 / Fold change vs veh, C1orf63 / RFU, LRRFIP1 / Fold change vs veh, LRRFIP1 / RFU, NDUFAF7 / Fold change vs veh, NDUFAF7 / RFU, SLC12A2 / Fold change vs veh, SLC12A2 / RFU, IBTK / Fold change vs veh, IBTK / RFU, ESF1 / Fold change vs veh, ESF1 / Fold change vs veh, TMEM50B / RFU, TAOK1 / Fold change vs veh, TAOK1 / RFU, ACBD3 / Fold change vs veh, ACBD3 / RFU, TMA16 / Fold change vs veh, TMA16 / RFU, RWDD3 / Fold change vs veh, RWDD3 / RFU, BCAT1 / Fold change vs veh, BCAT1 / RFU, EDEM3 / Fold change vs veh, EDEM3 / RFU, TMEM33 / Fold change vs veh, TMEM33 / RFU, WDR75 / Fold change vs veh, WDR75 / RFU, AHCTF1 / Fold change vs veh, AHCTF1 / RFU, TFRC / Fold change vs veh, TFRC / RFU, ZDHHC17 / Fold change vs veh, ZDHHC17 / RFU, NOM1 / Fold change vs veh, NOM1 / RFU, ARL8B / Fold change vs veh, ARL8B / RFU, ZBTB11 / Fold change vs veh, ZBTB11 / RFU, TAMM41 / Fold change vs veh, TAMM41 / RFU, KIAA1704 /// LOC100996395 / Fold change vs veh, KIAA1704 /// LOC100996395 / RFU, ING1 / Fold change vs veh, ING1 / RFU, TRMT61B / Fold change vs veh, TRMT61B / RFU, FUBP3 / Fold change vs veh, FUBP3 / RFU, TP53 / Fold change vs veh, TP53 / RFU, TNKS2 / Fold change vs veh, TNKS2 / RFU, ZFP14 / Fold change vs veh, ZFP14 / RFU, ACTR2 / Fold change vs veh, ACTR2 / RFU, PPP3R1 / Fold change vs veh, PPP3R1 / RFU, PIK3R1 / Fold change vs veh, PIK3R1 / RFU, HNRNPA1 / Fold change vs veh, HNRNPA1 / RFU, RNF170 / Fold change vs veh, RNF170 / RFU, ZNF28 / Fold change vs veh, ZNF28 / RFU, RNGTT / Fold change vs veh, RNGTT / RFU, OGT / Fold change vs veh, OGT / RFU, BRD1 / Fold change vs veh, BRD1 / RFU, MARS / Fold change vs veh, MARS / RFU, ZNF655 / Fold change vs veh, ZNF655 / RFU, FAHD1 / Fold change vs veh, FAHD1 / RFU, BDP1 / Fold change vs veh, BDP1 / RFU, LRRCC1 / Fold change vs veh, LRRCC1 / RFU, ARID1A / Fold change vs veh, ARID1A / RFU, ZNF146 / Fold change vs veh, ZNF146 / RFU, ZNF330 / Fold change vs veh, ZNF330 / RFU, GPN3 / Fold change vs veh, GPN3 / RFU, C9orf123 / Fold change vs veh, C9orf123 / RFU, N4BP2L2 / Fold change vs veh, N4BP2L2 / RFU, ARFIP1 / Fold change vs veh, ARFIP1 / RFU, FAM179B / Fold change vs veh, FAM179B / RFU, BCL10 / Fold change vs veh, BCL10 / RFU, UHRF1BP1L / Fold change vs veh, UHRF1BP1L / RFU, BET1 / Fold change vs veh, BET1 / RFU, CNOT2 / Fold change vs veh, CNOT2 / RFU, ZNF268 / Fold change vs veh, ZNF268 / Fold change vs veh, ZNF507 / RFU, DGCR2 / Fold change vs veh, DGCR2 / RFU, WDSUB1 / Fold change vs veh, WDSUB1 / Fold change vs veh, HSP90B1 /// MIR3652 / RFU, ADSS / Fold change vs veh, ADSS / RFU, GK / Fold change vs veh, GK / RFU, ZNF148 / Fold change vs veh, ZNF148 / RFU, TAF9 / Fold change vs veh, TAF9 / RFU, SLC1A5 / Fold change vs veh, SLC1A5 / RFU, SLMO2 / Fold change vs veh, SLMO2 / RFU, ABCC4 / Fold change vs veh, ABCC4 / RFU, LOC101060439 /// RAP1B / Fold change vs veh, LOC101060439 /// RAP1B / RFU, RFX7 / Fold change vs veh, RFX7 / RFU, GTPBP10 / Fold change vs veh, GTPBP10 / RFU, CNEP1R1 / Fold change vs veh, CNEP1R1 / RFU, BIVM-ERCC5 /// ERCC5 / Fold change vs veh, BIVM-ERCC5 /// ERCC5 / RFU, ILF3 / Fold change vs veh, ILF3 / RFU 11762660_at / Fold change /veh 11762660_at / RFU VCAN (11757783_s_at) / Fold change /veh VCAN (11757783_s_at) / RFU DDX43 (11728927_at) / Fold change /veh DDX43 (11728927_at) / RFU KRT8 (11758188_x_at) / Fold change /veh KRT8 (11758188_x_at) / RFU NKD1 (11759106_at) / Fold change /veh NKD1 (11759106_at) / RFU SRD5A1 (11742802_a_at) / Fold change /veh SRD5A1 (11742802_a_at) / RFU TPSAB1 /// TPSB2 (11721975_s_at) / Fold change /veh TPSAB1 /// TPSB2 (11721975_s_at) / RFU GSTM3 (11746129_a_at) / Fold change /veh GSTM3 (11746129_a_at) / RFU IL23R (11737362_x_at) / Fold change /veh IL23R (11737362_x_at) / RFU TMEM51 (11727254_a_at) / Fold change /veh TMEM51 (11727254_a_at) / RFU PIWIL2 (11732686_x_at) / Fold change /veh PIWIL2 (11732686_x_at) / RFU ORM1 (11744905_x_at) / Fold change /veh ORM1 (11744905_x_at) / RFU CCDC152 (11743942_at) / Fold change /veh CCDC152 (11743942_at) / RFU ECM1 (11717891_a_at) / Fold change /veh ECM1 (11717891_a_at) / RFU IL23R (11748794_a_at) / Fold change /veh IL23R (11748794_a_at) / RFU TNFAIP8L3 (11732012_x_at) / Fold change /veh TNFAIP8L3 (11732012_x_at) / RFU MBOAT4 (11741988_at) / Fold change /veh MBOAT4 (11741988_at) / RFU 11764193_at / Fold change /veh 11764193_at / RFU TMEM53 (11763286_at) / Fold change /veh TMEM53 (11763286_at) / RFU MAGEB2 (11727129_at) / Fold change /veh MAGEB2 (11727129_at) / RFU TMEM200A (11744735_a_at) / Fold change /veh TMEM200A (11744735_a_at) / RFU CCDC152 (11751479_a_at) / Fold change /veh CCDC152 (11751479_a_at) / RFU FAM211A (11726209_a_at) / Fold change /veh FAM211A (11726209_a_at) / RFU RGS16 (11746705_a_at) / Fold change /veh RGS16 (11746705_a_at) / RFU VCAN (11755009_s_at) / Fold change /veh VCAN (11755009_s_at) / RFU RHOB (11743442_s_at) / Fold change /veh RHOB (11743442_s_at) / RFU RGS16 (11720943_a_at) / Fold change /veh RGS16 (11720943_a_at) / RFU RGS16 (11720944_at) / Fold change /veh RGS16 (11720944_at) / RFU, VPS4B / Fold change vs veh, VPS4B / RFU, CREB1 / Fold change vs veh, CREB1 / RFU, DNAJC13 / Fold change vs veh, DNAJC13 / RFU, GNAQ / Fold change vs veh, GNAQ / RFU, CDK5R1 / Fold change vs veh, CDK5R1 / RFU, ZRANB3 / Fold change vs veh, ZRANB3 / RFU, CUL4A / Fold change vs veh, CUL4A / RFU, CCNY / Fold change vs veh, CCNY / RFU, UFL1 / Fold change vs veh, UFL1 / RFU, COG3 / Fold change vs veh, COG3 / RFU, DIAPH2 / Fold change vs veh, DIAPH2 / RFU, SKA2 / Fold change vs veh, SKA2 / RFU, AFF3 / Fold change vs veh, AFF3 / RFU, LMF1 / Fold change vs veh, LMF1 / RFU, IPO11 / Fold change vs veh, IPO11 / RFU, DFFB / Fold change vs veh, DFFB / RFU, FOXP1 / Fold change vs veh, FOXP1 / RFU, CARD8 / Fold change vs veh, CARD8 / RFU, STRN3 / Fold change vs veh, STRN3 / RFU, ADK / Fold change vs veh, ADK / RFU, RASSF2 / Fold change vs veh, RASSF2 / RFU, WIPF1 / Fold change vs veh, WIPF1 / RFU, LARP1B / Fold change vs veh, LARP1B / RFU, RASA1 / Fold change vs veh, RASA1 / RFU, RB1 / Fold change vs veh, RB1 / RFU, PPFIA1 / Fold change vs veh, PPFIA1 / RFU, MAT2A / Fold change vs veh, MAT2A / RFU, CCT5 / Fold change vs veh, CCT5 / RFU, WDR92 / Fold change vs veh, WDR92 / RFU, CUX1 / Fold change vs veh, CUX1 / RFU, TTC7A / Fold change vs veh, TTC7A / RFU, TMEM135 / Fold change vs veh, TMEM135 / RFU, DEPTOR / Fold change vs veh, DEPTOR / RFU, CPM / Fold change vs veh, CPM / RFU, DNAJB6 / Fold change vs veh, DNAJB6 / RFU, CACNA2D3 / Fold change vs veh, CACNA2D3 / RFU, DTX4 / Fold change vs veh, DTX4 / RFU, TFCP2 / Fold change vs veh, TFCP2 / RFU, GMCL1 /// GMCL1P1 / Fold change vs veh, GMCL1 /// GMCL1P1 / RFU, AEBP2 / Fold change vs veh, AEBP2 / RFU, SNHG1 /// SNORD22 /// SNORD25 /// SNORD26 /// SNORD27 /// SNORD28 /// SNORD29 /// SNORD31 / Fold change vs veh, SNHG1 /// SNORD22 /// SNORD25 /// SNORD26 /// SNORD27 /// SNORD28 /// SNORD29 /// SNORD31 / Fold change (Aza/veh), C12orf56 (ProbeSet 11735607_a_at) / Fold change (ACY-1035/veh), C12orf56 (ProbeSet 11735607_a_at) / Fold change (Aza/veh), FGFR1OP (ProbeSet 11751329_s_at) / Fold change (ACY-1035/veh), FGFR1OP (ProbeSet 11751329_s_at) / Fold change (Aza/veh), VPS36 (ProbeSet 11739960_a_at) / Fold change (ACY-1035/veh), VPS36 (ProbeSet 11739960_a_at) / RFU SYPL1 (11715823_x_at) / Fold change /veh SYPL1 (11715823_x_at) / RFU IGFBP7 (11715501_s_at) / Fold change /veh IGFBP7 (11715501_s_at) / RFU REEP3 (11722064_at) / Fold change /veh REEP3 (11722064_at) / RFU IGLL1 (11728026_x_at) / Fold change /veh IGLL1 (11728026_x_at): dose or concentration left out as unconfirmed",
  "details": "MV-4-11 cells, 48 hours",
  "data": [
    {"compound": "Nc1ccc(-c2cccs2)cc1NC(=O)c1ccc2c(c1)cc(C1CC1)n2CCN1CCOCC1", "note": "[ACY-1035]", "values": [
      {"measurement": "RFU RHOB (11743442_s_at)", "value": 104.18, "unit": "RFU"}
    ]}
  ]
}
